Source: patent US9072729B2, “Method for treating fibrosis and cancer with imidazolium and imidazolinium compounds” (Agency for Science, Technology and Research, priority 2008, dated 2015)

What was measured:
Format in all cases: cell-based, rat
[1] = system: GFAP; assay: Real-time RT-PCR of GFAP mRNA in HSC T6 cells
Experimental: (§1) FIG. 6. (a) DBZIM and (b) TDBZIM suppressed the mRNA expression of HSC activation markers (GFAP and SMAA) and fibrotic endpoints (col1a1 and fibronectin) in a dosage-dependent manner. […] The ΔΔCt method was used for relative quantification with vehicle control sample being the calibrator. The data were presented as mean and SEM, N=6, *^aP<0.05, *^bP<0.01, *^cP<0.005, and *^dP<0.0005, when compared to the vehicle control. FIG. 7. DBZIM (100 μM) and TDBZIM (100 μM) suppressed (a) GFAP, (b) SMAA, (c) col1a1 and (d) fibronectin mRNA expression in a time-dependent manner. HSC T6 cells were treated with DBZIM and TDBZIM, and assayed after 8, 24 and 48 h. […] FIG. 14. […] (50 μM), […] (50 μM), […] (10 μM) and DBZBIM (100 μM) were dissolved in DMSO with a final DMSO concentration of 0.2% (v/v). DPIM (2 mM), EGCG (25 μM) and DBZIM (100 μM) were dissolved in H2O. β-actin was used as the normalization gene; its expression was constant under the experimental conditions. Relative quantification was normalized against the respective vehicle control. The data were presented as mean and SEM, N=6, *^aP<0.05, *^cP<0.005, and *^dP<0.0005, when compared to the vehicle control. Total RNA was isolated using NucleoSpin RNAII isolation kit ([…], Germany), and quantified by ND-100 spectrophotometer (Nanodrop Technologies, DE, USA). The details of real-time RT-PCR were reported elsewhere (Zhang et al. 2006). Briefly, it was a two-step real-time RT-PCR using Taqman chemistry. Total RNA was first reverse transcribed to cDNA, and real-time PCR was run and detected in ABI 7500 Fast Real-Time PCR System (Applied Biosystems, CA, USA). Primers and probes for rat GFAP, SMAA, collagen Ia1, fibronectin, TGF-β1, TGF-β receptor I (TGFβ RI) and IL-6 were ordered from Taqman's assay-on-demand database. Rat β-actin was used as normalization gene, and its expression level was constant (CT difference was <±0.5) throughout the experimental settings in this study. Relative quantification of target mRNA was calculated using comparative threshold cycle method (ΔΔCT) as described in User Bulletin #2 (ABI Prism 7700 Sequence Detection System). Relative quantification was given by 2^-ΔΔCT to express the up-regulation or down regulation of the target gene under the treatments compared to the control.

[2] = system: SMAA; assay: Real-time RT-PCR of SMAA mRNA in HSC T6 cells; conditions: for change of SMAA mRNA: 8 h
Experimental: as §1

[3] = system: col1a1; assay: Real-time RT-PCR of col1a1 mRNA in HSC T6 cells
Experimental: as §1

[4] = system: HSC-T6 cells; assay: Glutathione (GSH) and GSSG assays; conditions: 48 h
Experimental: FIG. 3. […] (c) DBZIM and (d) TDBZIM both suppressed cellular GSSG (the oxidation product of GSH). (e) DBZIM and (f) TDBZIM both enhanced the GSH/GSSG ratio. HSC-T6 cells were incubated with compounds of various concentrations for 48 h, and assayed for the total GSH and GSSG amounts. The GSH/GSSG ratio was calculated as (GSH−GSSG)/GSSG. The GSH and GSSG amounts were normalized against the total protein. Note that DBZIM was dissolved in DMSO, and TDBZIM was dissolved in H2O. The data were presented as mean and SEM, N=6, *^aP<0.05, *^bP<0.01, *^cP<0.005, and *^dP<0.0005, when compared to the vehicle control.
Total cellular GSH and GSSG levels were determined by using assay kits from Cayman Chemical (Ann Arbor, Mich., USA) following the manufacturer's instructions. Briefly, HSC-T6 cells treated with DBZIM, TDBZIM, NAC, or EGCG were scalped and homogenized in phosphate buffered saline (PBS) by sonication at 60% frequency for 30 s, and the supernatant was collected after centrifugation at 16,000×g for 10 min at 4° C. Protein content of the samples was determined by bicinchonicic acid (BCA) assay.
For GSH assays, the protein sample was deproteinated by metaphosphoric acid (Aldrich, Catalog No. 23927-5), and the pH was adjusted by triethanolamine (Aldrich, Catalog No. T5830-0) according to the manual. The sample was ready for assaying total GSH including both the reduced and oxidized forms. Quantification of GSSG, exclusive of GSH, was performed by first derivatizing GSH with 2-vinylpyridine and assaying separately. Colorimetric signal was recorded at 405 nm with a Tecan Safire II plate reader. The levels of GSH or GSSG were determined as nmol/μg protein.

[5] = system: SOD; assay: Superoxide dismutase (SOD) activity assay in treated cells; conditions: HSC T6 cells, 48 h
Experimental: FIG. 4. Effect of DBZIM and TDBZIM on GPx, CAT, SOD and GST. DBZIM affected (a) GPx activity and (c) CAT activity in a dosage-dependent manner. TDBZIM suppressed (b) GPx activity and (d) CAT activity. (e) DBZIM and (f) TDBZIM had little effect on SOD activity. (g) DBZIM induced GST activity. HSC T6 cells were treated with compounds of various concentrations for 48 h, and homogenized by sonication (60% frequency for 30 s) in PBS (pH 7.4, 1 mM of EDTA) for GPx, GST and CAT assays, or in 20 mM of HEPES buffer containing 1 mM of EGTA, 210 mM of mannitol and 70 mM of sucrose (pH 7.2) for SOD assay. Enzyme activity was normalized against total protein. DBZIM was dissolved in DMSO, and TDBZIM was dissolved in H2O. The data were presented as mean and SEM, N=6, *^aP<0.05, *^bP<0.01, *^cP<0.005, and *^dP<0.0005, when compared to the vehicle control.
Activity levels of three anti-oxidant enzymes, GPx, CAT and SOD, were determined using assay kits from Cayman Chemical. To assay GPx and CAT activities, protein samples were harvested in ice-cold PBS containing 1 mM of EDTA. To assay SOD activity, protein samples were prepared in 20 mM of N-(2-hydroxyethyl)-piperazine-N′-2-ethanesulfonic acid (HEPES) buffer containing 1 mM of ethylene glycol-bis(2-aminoethylether)-N,N,N′,N′-tetraacetic acid (EGTA), 210 mM of mannitol and 70 mM of sucrose. Protein content was determined by BCA assay.
Total SOD, including all three types of SOD (Cu/Zn-, Mn- and Fe-SOD), was quantified using a tetrazolium salt to detect superoxide radicals generated by xanthine oxidase and hyposanthine. […] SOD activity was expressed as U/mg protein.

Row | Compound | decrease of GFAP mRNA ([1]; 10 μM, 48 h) [%] | decrease of GFAP mRNA ([1]; 100 μM, 8 h) [%] | decrease of GFAP mRNA ([1]; 100 μM, 24 h) [%] | decrease of GFAP mRNA ([1]; 100 μM, 48 h) [%] | depletion of GSSG ([4]; 10 μM) [%] | enhancement of GSH/GSSG ratio ([4]; 10 μM) [%] | depletion of GSSG ([4]; 50 μM) [%] | enhancement of GSH/GSSG ratio ([4]; 50 μM) [%] | enhancement of GSH/GSSG ratio ([4]; 100 μM) [%] | change of SMAA mRNA ([2]; 100 μM) | effect on SOD activity [5] | decrease of col1a1 mRNA ([3]; 100 μM, 8 h) [%] | decrease of col1a1 mRNA ([3]; 100 μM, 24 h) [%] | decrease of col1a1 mRNA ([3]; 100 μM, 48 h) [%] | other results
1 | CC(C)n1cc[n+](C(C)C)c1.F[B-](F)(F)F [DPIM, 1,3-diisopropylimidazolium tetrafluoroborate] |  |  |  |  |  |  |  |  |  |  |  |  |  |  | suppression of GFAP mRNA ([1]; 48 h, DPIM 2 mM, AMIM 50 μM, TMPHIM 50 μM, DBZBIM 100 μM): 78%; suppression of SMAA mRNA ([2]; 48 h, DBIM 1 mM, DPIM 2 mM, AMIM 50 μM, TMPHIM 50 μM): 78%; suppression of col1a1 mRNA ([3]; 48 h, DBIM 1 mM, DPIM 2 mM, TMPHIM 50 μM, DPPHIM 10 μM): 61%
2 | 1,3,5-tris(4-methyl-imidazolium)-linked cyclophane.3Br [TDBZIM] | 20 | 30 | 36 | 60 | 12 | 14 | 35 | 65 | 106 | no change | did not show much effect | 22 | 40 | 53 | decrease of GFAP mRNA ([1]; 1 μM, 48 h): 32%; depletion of GSSG ([4]; 100 μM): 50%; effect on total cellular GSH level ([4]; 10-100 μM): did not alter; decrease of SMAA mRNA ([2]; 1 μM, 48 h): 27%; transient induction of SMAA mRNA ([2]; 100 μM, 24 h): up to 79%; decrease of col1a1 mRNA ([3]; 1 μM, 48 h): 39%; decrease of col1a1 mRNA ([3]; 10 μM, 48 h): 36%
3 | (−)-Epigallocatechin gallate [EGCG, reference compound] |  |  |  |  |  |  |  |  |  |  | did not show much effect |  |  |  | inhibition on HSC activation and fibrosis (GFAP, SMAA, fibronectin, col1a1 mRNA) ([1]; EGCG 25 μM, 48 h): did not show significant inhibition; reduction of GSSG (references) ([4]; EGCG 25 μM, NAC 5 mM): 42%; increase in GSH/GSSG ratio (references) ([4]; NAC 5 mM, EGCG 25 μM): 2 fold; induction of total GSH (references) ([4]; NAC 5 mM, EGCG 25 μM): 19%
4 | [Br-].c1ccc(Cn2cc[n+](Cc3ccccc3)c2)cc1 [DBZIM, 1,3-bisbenzylimidazolium bromide] | 18 | 28 | 40 | 56 | 13 | 8 | 23 | 15 | 23 | no change | did not show much effect | 22 | 29 | 21 | decrease of GFAP mRNA ([1]; 300 μM, 48 h): 86%; attenuation of total GSH level ([4]; 10 μM): 7%; attenuation of total GSH level ([4]; 50 μM): 12%; attenuation of total GSH level ([4]; 100 μM): 20%; GSH/GSSG ratio relative to control group ([4]; 300 μM): 7.4 fold; depletion of GSSG ([4]; 300 μM): 85%; enhancement of total GSH level ([4]; 300 μM, without statistical significance): 8%; depletion of GSSG ([4]; 1001 μM): 35%; decrease of SMAA mRNA ([2]; 100 μM, 48 h): 21%; decrease of SMAA mRNA ([2]; 300 μM, 48 h): 58%; decrease of col1a1 mRNA ([3]; 300 μM, 48 h): 44%
